Measurements from patent publication US8299056B2 (Signal Pharmaceuticals, LLC, priority 2008, dated 2012).
Like-named read-outs stand apart in the source and are kept apart here.

Biological target: T1, Syk (Homo sapiens, UniProt P43405)
T1 construct: purchased Carna Biosciences
Test: Syk HTRF assay
Format: biochemical
Outline: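 HTRF kinase assay in HEPES pH 7.6 buffer with MgCl2, DTT and Triton X100; start mix of 87.5 μM ATP and 80 nM biotinylated peptide, 1 h at room temperature. EDTA stop, then Eu-anti-phosphotyrosine/streptavidin-DyLight 647 detection, read as 665/615 nm emission ratio.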

[1] = read-out: Activity Level (Syk HTRF assay IC50)
[2] = IC50 activity level, read-out: Activity Level
[3] = activity levels A-D, read-out: Activity Level (IC50 in the Syk HTRF assay)

Cc1n[nH]c2cc(Nc3nc4cccc(N(C)CCO)n4n3)ccc12 [Example 190, 2-(methyl(2-(3-methyl-1H-indazol-6-ylamino)-[1,2,4]triazolo[1,5-a]pyridin-5-yl)amino)ethanol]
IC50 [1]: 0.005 to 250 nM

Oc1cccc(-c2cccc3nc(Nc4ccc5cnoc5c4)nn23)c1 [compound 14, 3-(2-(benzo[d]isoxazol-6-ylamino)-[1,2,4]triazolo[1,5-a]pyridin-5-yl)phenol]
IC50 [1]: 0.005 to 250 nM

OC[C@@H](Nc1cccc2nc(Nc3ccc(C(F)(F)F)cc3)nn12)c1ccccc1 [Example 413, (S)-2-phenyl-2-(2-(4-(trifluoromethyl)phenylamino)-[1,2,4]triazolo[1,5-a]pyridin-5-ylamino)ethanol]
IC50 [2]: 1000 to 10000 nM

NC(=O)c1cc(-c2cccc3nc(Nc4ccc(F)cc4)nn23)ccn1 [Example 416, 4-(2-(4-fluorophenylamino)-[1,2,4]triazolo[1,5-a]pyridin-5-yl)picolinamide]
IC50 [2]: 1000 to 10000 nM

NC(=O)c1cc(Nc2nc3cccc(-c4ccccc4)n3n2)ccc1F [compound 65, 2-fluoro-5-(5-phenyl-[1,2,4]triazolo[1,5-a]pyridin-2-ylamino)benzamide]
IC50 [1]: 1000 to 10000 nM

Cn1c(=O)[nH]c2cc(Nc3nc4cccc(CC5CCOCC5)n4n3)ccc21 [Example 532, 1-methyl-5-(5-((tetrahydro-2H-pyran-4-yl)methyl)-[1,2,4]triazolo[1,5-a]pyridin-2-ylamino)-1H-benzo[d]imidazol-2(3H)-one]
IC50 [2]: 0.005 to 250 nM

NCCOc1cc(Nc2nc3cccc(NC4CCCNC4)n3n2)ccn1 (stereo in doubt) [Example 404, (S)-N^2-(2-(2-aminoethoxy)pyridin-4-yl)-N^5-(piperidin-3-yl)-[1,2,4]triazolo[1,5-a]pyridine-2,5-diamine]
IC50 [2]: 0.005 to 250 nM

CC(c1cccc2nc(Nc3ccc(C(F)(F)F)cc3)nn12)N1CCNC(=O)C1 (stereo not shown) [Example 263, 4-(1-(2-(4-(trifluoromethyl)phenylamino)-[1,2,4]triazolo[1,5-a]pyridin-5-yl)ethyl)piperazin-2-one]
IC50 [3]: 0.005 to 250 nM

OC1(Cc2cccc3nc(Nc4ccc(F)cc4)nn23)CCNCC1 [Example 430, 4-((2-(4-fluorophenylamino)-[1,2,4]triazolo[1,5-a]pyridin-5-yl)methyl)piperidin-4-ol]
IC50 [2]: 1000 to 10000 nM

Cc1n[nH]c2ccc(Nc3nc4cccc(NC5CCOCC5)n4n3)cc12 [compound 117]
IC50 [1]: 500 to 1000 nM

OCC1CCCN(Cc2cccc3nc(Nc4ccc(C(F)(F)F)cc4)nn23)C1 (stereo not shown) [Example 273, (1-((2-(4-(trifluoromethyl)phenylamino)-[1,2,4]triazolo[1,5-a]pyridin-5-yl)methyl)piperidin-3-yl)methanol]
IC50 [3]: 1000 to 10000 nM

NC(=O)c1ccc(Nc2nc3cccc(-c4ccccc4)n3n2)cn1 [compound 72, 5-(5-phenyl-[1,2,4]triazolo[1,5-a]pyridin-2-ylamino)picolinamide]
IC50 [1]: 1000 to 10000 nM

NC(=O)c1cccc(Nc2nc3cccc(-c4ccccc4)n3n2)c1 [compound 67, 3-(5-phenyl-[1,2,4]triazolo[1,5-a]pyridin-2-ylamino)benzamide]
IC50 [1]: 500 to 1000 nM

Cc1nnc2cc(Nc3nc4cccc(CC5CCOCC5)n4n3)ccn12 [Example 538, 3-methyl-N-(5-((tetrahydro-2H-pyran-4-yl)methyl)-[1,2,4]triazolo[1,5-a]pyridin-2-yl)-[1,2,4]triazolo[4,3-a]pyridin-7-amine]
IC50 [2]: 1000 to 10000 nM

O=c1cc(Cc2cccc3nc(Nc4ccc(C(F)(F)F)cc4)nn23)cc[nH]1 [Example 317, 4-((2-(4-(trifluoromethyl)phenylamino)-[1,2,4]triazolo[1,5-a]pyridin-5-yl)methyl)pyridin-2(1H)-one]
IC50 [3]: 0.005 to 250 nM

FC(F)(F)c1ccc(Nc2nc3cccc(CC4CCNCC4)n3n2)cc1 [Example 395, 5-(piperidin-4-ylmethyl)-N-(4-(trifluoromethyl)phenyl)-[1,2,4]triazolo[1,5-a]pyridin-2-amine]
IC50 [3]: 0.005 to 250 nM
